These molecules were tested against T1, NEDD8-activating enzyme (NAE) (Homo sapiens, UniProt Q8TBC4) (assay: cell-free Ubc12-NEDD8 conjugation assay, western blot).
T1 construct: gene UBA3; recombinant human NAE (APPBP1/UBA3 heterodimer); with APPBP1 (NAE1)
T1 sequence (Q8TBC4 2-463): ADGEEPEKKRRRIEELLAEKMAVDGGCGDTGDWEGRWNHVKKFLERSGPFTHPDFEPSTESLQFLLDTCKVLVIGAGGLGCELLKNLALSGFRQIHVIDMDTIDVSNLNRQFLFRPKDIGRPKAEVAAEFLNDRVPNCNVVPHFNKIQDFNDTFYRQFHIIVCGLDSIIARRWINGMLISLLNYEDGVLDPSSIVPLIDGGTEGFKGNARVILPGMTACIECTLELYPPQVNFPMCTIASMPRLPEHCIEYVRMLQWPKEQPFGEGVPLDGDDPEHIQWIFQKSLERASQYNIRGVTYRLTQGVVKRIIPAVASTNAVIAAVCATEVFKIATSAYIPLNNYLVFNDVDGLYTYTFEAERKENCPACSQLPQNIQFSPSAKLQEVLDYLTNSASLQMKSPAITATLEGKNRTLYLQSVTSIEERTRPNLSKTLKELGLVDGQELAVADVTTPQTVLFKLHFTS
T1 sequence (Q13564 2-534 partner): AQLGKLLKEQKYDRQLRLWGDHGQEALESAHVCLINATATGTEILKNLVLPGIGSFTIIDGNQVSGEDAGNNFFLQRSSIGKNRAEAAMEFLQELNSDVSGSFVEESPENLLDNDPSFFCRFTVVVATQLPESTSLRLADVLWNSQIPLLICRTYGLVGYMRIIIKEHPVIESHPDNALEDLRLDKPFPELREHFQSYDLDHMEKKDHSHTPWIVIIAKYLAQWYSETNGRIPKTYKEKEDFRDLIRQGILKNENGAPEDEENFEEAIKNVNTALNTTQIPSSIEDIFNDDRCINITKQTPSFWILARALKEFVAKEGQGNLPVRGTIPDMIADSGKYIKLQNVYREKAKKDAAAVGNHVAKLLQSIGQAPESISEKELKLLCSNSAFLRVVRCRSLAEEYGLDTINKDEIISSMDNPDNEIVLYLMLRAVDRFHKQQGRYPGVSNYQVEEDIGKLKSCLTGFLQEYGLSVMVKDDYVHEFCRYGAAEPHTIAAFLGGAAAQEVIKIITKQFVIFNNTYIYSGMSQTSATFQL
Type: biochemical

| SMILES | IC50 |
| --- | --- |
| Cc1cc2nc3c4ccc[n+]5c4c4c(ccc[n+]4[Rh-3]546([c]5cc(C=O)ccc5-c5cccc[n+]54)[c]4cc(C=O)ccc4-c4cccc[n+]46)c3nc2cc1C [compound 3, complex 3] | ~6.25 µM |
| Cc1cc2nc3c4ccc[n+]5c4c4c(ccc[n+]4[Rh-3]546([c]5ccccc5-c5cccc[n+]54)[c]4ccccc4-c4cccc[n+]46)c3nc2cc1C [compound 2, complex 2] | ~6.25 µM |
| c1cc[c]2c(c1)-c1cccc[n+]1[Rh-3]213([c]2ccccc2-c2cccc[n+]21)[n+]1cccc2c4nc5ccccc5nc4c4ccc[n+]3c4c21 [compound 1, [Rh(ppy)2(dppz)]^+] | ~1.5 µM |
| O=Cc1ccc2[c](c1)[Rh-3]13([c]4cc(C=O)ccc4-c4cccc[n+]41)([n+]1ccccc1-2)[n+]1cccc2c4nc5ccc([N+](=O)[O-])cc5nc4c4ccc[n+]3c4c21 [compound 4, complex 4] | ~13 µM |
